Source: patent publication US7723320B2, “Use of estrogen compounds to increase libido in women” (Pantarhei Bioscience B.V., priority 2001, dated 2010)
Read-outs that look alike come from different tables or passages of the source.

Key:
[1] = Single dose po/sc bioavailability and elimination half-life study; assay type: in vivo; conditions: rat, plasma, female Sprague Dawley rats; for bioavailability: po
Protocol: To evaluate the oral (po) and subcutaneous (sc) bioavailability of estetrol (E4) and to determine the elimination half-life, single dose studies were performed in female Sprague Dawley rats followed by frequent blood sampling over a 24 hours interval.
Female Sprague Dawley rats were equipped with a permanent silatic heart catheter, as described by Kuipers et al. (1985, Gastroenterology, 88, 403-411). Rats were allowed to recover from surgery for 5 days and were than administered 0.05, 0.5, or 5 mg/kg E4 in 0.5 ml arachis oil. For sc administration, E4 was injected in the neck area using a 1 ml syringe and 20 g needle. For po administration of E4, rats were lightly anaesthesized with halothene/N2O/O2 and E4 was directly applied intragastrically using a plastic stomach intubator. Blood samples were subsequently collected via the heart catheter in heparinized tubes at 0.5, 1, 2, 4, 8 and 24 hours. Erytlrocytes were removed by centrifugation at 5000×g for 10 minutes at 4° C. and blood plasma was stored at −20° C. After thawing the plasma samples, liquid-liquid extraction (hexane/diethylether) was employed to prepare the E4-containing plasma samples for HPLC analysis (Perkin Elmer 200) and tandem mass spectrometry using a PE Sciex 3000 tandem mass spectrometer and APCI interface. With each sample batch, a calibration curve with 6 calibrators was recorded. The calibration curve was calculated using linear regression (correlation coefficient>0.98), which permitted quantitation of plasma concentrations. For each rat plasma, sampled at different time intervals, data were collected.
Plasma E4 concentration data were analysed with “WinNonLin, edition 3.1” and involved pharmacokinetic parameters for Cmax, half-life and AUC0-24.

[2] = target: T1, human ERα (Homo sapiens, UniProt P03372); assay: Competitive steroid binding assay, ERα; conditions: for inhibition at 0.003 µM: E4 3 nM; for inhibition at 0.01 µM: E4 10 nM; for inhibition at 0.03 µM: E4 0.03 μM; for inhibition at 0.1 µM: E4 0.1 μM; for inhibition at 0.3 µM: E4 0.3 μM
T1 sequence (P03372 1-595): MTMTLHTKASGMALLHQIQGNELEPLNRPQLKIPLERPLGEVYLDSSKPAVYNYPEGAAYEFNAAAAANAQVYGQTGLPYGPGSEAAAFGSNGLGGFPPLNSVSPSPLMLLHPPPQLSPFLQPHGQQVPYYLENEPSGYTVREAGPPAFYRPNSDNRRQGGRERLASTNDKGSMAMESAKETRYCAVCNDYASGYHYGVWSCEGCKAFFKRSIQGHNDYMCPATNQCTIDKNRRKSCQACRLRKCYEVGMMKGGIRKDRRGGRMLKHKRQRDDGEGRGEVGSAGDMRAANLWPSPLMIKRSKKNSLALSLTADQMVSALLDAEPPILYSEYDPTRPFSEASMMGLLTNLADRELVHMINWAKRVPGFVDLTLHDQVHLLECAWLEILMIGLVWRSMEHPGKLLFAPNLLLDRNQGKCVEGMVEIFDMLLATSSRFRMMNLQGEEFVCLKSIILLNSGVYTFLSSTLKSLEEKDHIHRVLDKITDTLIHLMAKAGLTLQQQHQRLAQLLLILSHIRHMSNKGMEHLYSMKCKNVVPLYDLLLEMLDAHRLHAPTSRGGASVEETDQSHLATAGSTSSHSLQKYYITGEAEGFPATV

[3] = tested on: postmenopausal women; assay: Clinical study of libido in postmenopausal women; assay type: in vivo, human; conditions: 4 months
Protocol: In a baseline cycle, coitus frequency and sexual satisfaction (female orgasm) are recorded.
Each participant receives blinded medication in 2 differently labeled bottles, filled with tablets. One bottle comprises tablets that contain 2 mg estetrol, whilst the other bottle contains identical placebo tablets. The participants are allowed to choose from which bottle to take a tablet, but are instructed not to use more than 1 tablet per 24 hours and not more than 2 tablets a week. The total duration of the study is 4 months.

[4] = tested on: human breast cancer cells (MCF-7); conditions: MCF-7, long term tissue culture; cited from earlier work
[5] = tested on: uterus; conditions: continuous administration from a subcutaneous depot; cited from earlier work
[6] = tested on: estrogen receptors in the human endometrium; conditions: Tseng et al., 1978; cited from earlier work
[7] = target: T2, rat uterine cytosol estrogen receptor (Rattus norvegicus, UniProt P06211); conditions: cited from earlier work
T2 construct: rat uterine cytosol estrogen receptor; host or cells: rat uterus (cytosol / nuclear fraction)
T2 sequence (P06211 1-600): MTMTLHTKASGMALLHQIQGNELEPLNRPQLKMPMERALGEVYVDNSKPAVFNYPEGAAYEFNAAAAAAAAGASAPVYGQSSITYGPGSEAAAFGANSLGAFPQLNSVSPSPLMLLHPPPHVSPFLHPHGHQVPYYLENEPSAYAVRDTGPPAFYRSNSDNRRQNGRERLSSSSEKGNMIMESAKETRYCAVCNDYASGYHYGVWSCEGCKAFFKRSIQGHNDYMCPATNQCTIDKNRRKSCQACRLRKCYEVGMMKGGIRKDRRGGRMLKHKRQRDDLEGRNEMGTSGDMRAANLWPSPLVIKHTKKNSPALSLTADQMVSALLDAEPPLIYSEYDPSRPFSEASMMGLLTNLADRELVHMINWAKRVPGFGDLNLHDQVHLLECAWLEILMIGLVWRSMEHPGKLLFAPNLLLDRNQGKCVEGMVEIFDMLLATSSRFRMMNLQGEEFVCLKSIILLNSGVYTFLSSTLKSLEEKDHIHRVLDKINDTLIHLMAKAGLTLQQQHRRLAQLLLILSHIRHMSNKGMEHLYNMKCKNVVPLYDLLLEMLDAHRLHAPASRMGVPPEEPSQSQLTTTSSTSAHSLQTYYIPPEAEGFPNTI

[8] = target: T3, rat uterine nuclear estrogen receptor (Rattus norvegicus, UniProt P06211); conditions: cited from earlier work
T3 construct: rat uterine cytosol estrogen receptor; host or cells: rat uterus (cytosol / nuclear fraction)
T3 sequence (P06211 1-600): T2 sequence (P06211 1-600)

[9] = Test 1, read-out: Percent inhibition of specific binding in ERα steroid binding assay
[10] = Test 2, read-out: Percent inhibition of specific binding in ERα steroid binding assay
[11] = Test 3, read-out: Percent inhibition of specific binding in ERα steroid binding assay

C[C@]12CC[C@@H]3c4ccc(O)cc4CC[C@H]3[C@@H]1[C@@H](O)[C@@H](O)[C@@H]2O [E4, 1,3,5(10)-estratrien-3,15α,16α,17β-tetrol]
half-life ([1]; other: subcutaneous and oral, sc and po single dose): 2 to 3 h | bioavailability ([1]; single dose 5.0 mg/kg, read-out: oral bioavailability relative to sc administered E4): 30 to 60% | bioavailability ([1]; single dose 0.05, 0.5 mg/kg, read-out: oral bioavailability relative to sc administration): 80 to 100% | inhibition at 0.003 µM [2, 9]: 26% | inhibition at 0.003 µM [2, 10]: 17% | inhibition at 0.003 µM [2, 11]: 11% | inhibition at 0.01 µM [2, 9]: 43% | inhibition at 0.01 µM [2, 10]: 32% | inhibition at 0.01 µM [2, 11]: 28% | inhibition at 0.03 µM [2, 9]: 64% | inhibition at 0.03 µM [2, 10]: 66% | inhibition at 0.03 µM [2, 11]: 63% | inhibition at 0.1 µM [2, 9]: 83% | inhibition at 0.1 µM [2, 10]: 85% | inhibition at 0.1 µM [2, 11]: 86% | inhibition at 0.3 µM [2, 9]: 92% | inhibition at 0.3 µM [2, 10]: 94% | inhibition at 0.3 µM [2, 11]: 101% | inhibition at 1 µM ([2]; E4 1 μM, Test 1, read-out: Percent inhibition of specific binding in ERα steroid binding assay): 98% | Relative ERα/ERβ preference ([2]; from Ki values for ERα and ERβ): 400% | use of estetrol containing tablets versus placebo tablets ([3]; blinded free choice between two bottles): significantly more | libido and sexual enjoyment in comparison to baseline ([3]; oral 2 mg tablets on demand, postmenopausal women): improved libido and sexual enjoyment | undesirable side-effects ([3]; oral 2 mg tablets, max 2 tablets a week): no undesirable side-effects are reported | agonistic potency relative to 17β-estradiol in in vitro cell proliferation [4]: 2% | uterotrophic activity [5]: very weak uterotrophic activity | relative binding to estrogen receptors, of 17β-estradiol [6]: 1.5% | relative binding affinity, of 17β-estradiol (100%) [7]: 0.5% | relative binding affinity, of 17β-estradiol (100%) [8]: 0.3%
